From PMC5607274, “An iterative compound screening contest method for identifying target protein inhibitors using the tyrosine-protein kinase Yes” (Scientific Reports, 2017)

Each molecule was assayed against T1, human recombinant Yes [a.a. 2–543 (end)] (Homo sapiens, UniProt P07947) (assay: ADP-Glo kinase assay, inhibition rates of Yes phosphorylation activity (first and second screening)). Settings: first screening; mean of n = 4 wells; 10 μmol L−1 compound.
T1 construct: human recombinant Yes [a.a; 2–543 (end)]; purchased BPS Bioscience 40488
Assay type: biochemical
How it was run: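 Hits from a first pass were rescreened after re-dissolution from fresh powder. The first pass reported the mean inhibition rate of quadruplicate wells per compound. Activity was that of recombinant human Yes [a.a. 2–543] kinase, read out with the ADP-Glo ADP-detection method.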

T1 sequence (P07947 2-543): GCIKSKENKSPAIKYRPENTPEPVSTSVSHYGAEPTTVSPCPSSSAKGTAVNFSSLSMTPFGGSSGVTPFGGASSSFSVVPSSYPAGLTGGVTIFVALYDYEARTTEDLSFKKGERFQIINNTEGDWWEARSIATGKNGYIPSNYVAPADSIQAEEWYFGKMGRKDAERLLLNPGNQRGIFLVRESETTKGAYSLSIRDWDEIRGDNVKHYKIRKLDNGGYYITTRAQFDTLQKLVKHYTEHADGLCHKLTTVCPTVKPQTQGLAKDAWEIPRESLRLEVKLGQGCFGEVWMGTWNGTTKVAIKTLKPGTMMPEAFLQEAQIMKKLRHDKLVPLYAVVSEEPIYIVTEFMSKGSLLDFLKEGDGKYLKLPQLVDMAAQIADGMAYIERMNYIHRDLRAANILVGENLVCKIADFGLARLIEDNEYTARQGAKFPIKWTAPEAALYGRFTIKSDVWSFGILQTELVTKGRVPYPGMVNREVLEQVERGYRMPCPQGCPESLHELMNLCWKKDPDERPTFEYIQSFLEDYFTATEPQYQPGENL

Row | SMILES | First screening IR (inhibition rate) [%]
1 | CN(c1ccc(OC(=O)C23CC4CC(CC(Cl)(C4)C2)C3)cc1)S(=O)(=O)c1ccccc1F [Compound Z29631119] | 5
2 | CC(=O)NC12CC3CC(C1)CC(C(=O)Oc1ccc(N(C)S(=O)(=O)c4cc(C)ccc4C)cc1)(C3)C2 [Compound Z29631809] | 1
3 | O=C(/C=C/c1cn(-c2ccccc2)nc1-c1cccnc1)N1CC=C(c2ccccc2)CC1 [Compound Z29699890] | 10
4 | Cc1cc(F)ccc1NC(=O)C(C)Oc1cccc(Cl)c1 (stereo not drawn) [Compound Z29827650] | 11
5 | O=C(NCc1cccc(C(F)(F)F)c1)c1n[nH]c(=O)c2ccccc12 [Compound Z29859952] | 6
6 | Cc1cc(NC(=O)C(C)SCC(=O)Nc2cccc3ncccc23)no1 (stereo not drawn) [Compound Z29903633] | -3
7 | CCOC(=O)c1sc(-c2cccc([N+](=O)[O-])c2)cc1NC(=O)CCc1ccccc1 [Compound Z29956667] | -1
8 | Cc1nn(-c2ccccc2)c2sc(C(=O)NCc3ccccn3)cc12 [Compound Z30166588] | 1
9 | O=C(NCCCn1ccnc1)C1CCN(C(=O)c2ccc(F)cc2)CC1 [Compound Z30216742] | 41
10 | CCCOc1c(Br)cc(C(=O)Nc2cccc(S(=O)(=O)N(CC)CC)c2)cc1OC [Compound Z30220173] | 20
11 | O=C(CCCSc1nc2ccccc2[nH]1)Nc1ccc(-c2nc3ccccc3[nH]2)cc1 [Compound Z30270226] | 17
12 | O=C(NCCSc1ccc(Br)cc1)c1ccc2nc[nH]c2c1 [Compound Z30463043] | 7
13 | O=C(Nc1cccc(C(F)(F)F)c1)c1cccc(NC(=O)c2cnccn2)c1 [Compound Z30576843] | 14
14 | COc1ccc(-c2cc(C(=O)OCc3ccccn3)c3ccccc3n2)cc1OC [Compound Z30610492] | -9
15 | NC(=O)NCc1ccc(C(=O)N2CCN(c3ncc(C(F)(F)F)cc3Cl)CC2)cc1 [Compound Z30640594] | 4
16 | C=CCN1C(=O)c2ccc(C(=O)Nc3cc(C)cc(C)c3)cc2C1=O [Compound Z30888972] | 20
17 | CC(=O)c1ccc(-c2ccc(C(=O)Nc3cc(F)ccc3C)o2)cc1 [Compound Z30903878] | -3
18 | CCOC(=O)c1c(NC(=O)CN2CCN(c3cccc(Cl)c3)CC2)sc(Cc2ccc3c(c2)OCO3)c1C [Compound Z30983122] | 12
19 | Cc1sc2nc(CN3CCOCC3)nc(Oc3ccc(NC(=O)c4ccc(C(C)(C)C)cc4)cc3)c2c1C [Compound Z31089732] | -13
20 | CN(C)c1ccc(C(CNc2ncccc2C#N)c2c[nH]c3ccccc23)cc1 (stereo not drawn) [Compound Z31123519] | 0
21 | Cc1sc2nc(CSc3ccccc3)nc(N3CCCC3C(N)=O)c2c1C (stereo not drawn) [Compound Z31132453] | 9

Row | SMILES | First screening IR (inhibition rate) [%]
22 | Cc1sc2nc(CN3CCCC3)nc(N(C)CC(=O)Nc3ccc(N4CCOCC4)cc3)c2c1C [Compound Z31148700] | 45
23 | CCCN1CCN(c2ccc(S(=O)(=O)NC3CCC(C)CC3)cc2[N+](=O)[O-])CC1 (stereo not drawn) [Compound Z31152357] | -14
24 | COc1ccc(Cl)cc1NC(=O)CN(C)c1nc(CN2CCOCC2)nc2sc3c(c12)CCC(C)C3 (stereo not drawn) [Compound Z31158506] | 7
25 | CCN(CC)S(=O)(=O)c1ccc(N2CCN(S(=O)(=O)c3ccccc3C#N)CC2)nc1 [Compound Z31169752] | 6
26 | Cc1sc2ncnc(Nc3ccc4c(c3)OCO4)c2c1C [Compound Z31191207] | 14
27 | CN(Cc1ccccc1)c1nc(CN2CCOCC2)nc2sc3c(c12)CCC3 [Compound Z31196583] | 8
28 | Cc1sc2nc(-c3cccnc3)nc(N3CCOCC3)c2c1-c1ccccc1 [Compound Z31211547] | 13
29 | Cc1sc2nc(-c3cccnc3)nc(NC3CC3)c2c1C [Compound Z31232965] | -3
30 | CCN(CCO)c1nc(-c2ccccn2)nc2scc(-c3ccccc3)c12 [Compound Z31238841] | 19
31 | CC1CCc2c(sc3nc(-c4cccnc4)nc(N4CCCCCCC4)c23)C1 (stereo not drawn) [Compound Z31262492] | 4
32 | CCOC(=O)c1ccc(-n2c(O)c(C=NCc3ccccn3)c3ccccc3c2=O)cc1 [Compound Z31275874] | -12
33 | CCOc1ccc(-n2c(O)c(C=NCCCN3CCOCC3)c3ccccc3c2=O)cc1 [Compound Z31276645] | -6
34 | CCN(CC)S(=O)(=O)c1ccc(NC(=O)CNC(=O)C23CC4CC(CC(C4)C2)C3)cc1 [Compound Z31827545] | 8
35 | O=C(Cc1cccc(F)c1)NNC(=O)Cn1c(COc2ccc(Cl)cc2)nc2ccccc21 [Compound Z31930719] | -2
36 | CC(C)(CNC(=O)c1cccc(N2CC(O)=C(c3nc4ccccc4s3)C2=N)c1)N1CCOCC1 [Compound Z32220177] | 8
37 | O=C(CCC(=O)N1CCC(c2ccccc2)=N1)NCc1cccc(Cl)c1 [Compound Z32361141] | 30
38 | O=C(CCc1c[nH]c2ccccc12)Nc1ccc(F)c([N+](=O)[O-])c1 [Compound Z32407809] | 4
39 | Cc1cc(C(=O)CCC(=O)NCCc2c[nH]c3ccccc23)c(C)s1 [Compound Z32439393] | 21
40 | O=C(Nc1ccc(N2CCCCC2)c(S(=O)(=O)Nc2ccc(Cl)cc2)c1)c1ccc(S(=O)(=O)NCc2ccco2)cc1 [Compound Z32729001] | -5
41 | Cc1cc(F)ccc1S(=O)(=O)Nc1ccc(C(=O)Nc2cccc(CO)c2)cc1 [Compound Z32804094] | 11
42 | Cc1noc(C)c1COc1ccc(C(=O)NCCCn2ccc3ccccc32)cc1 [Compound Z32811942] | 3

Row | SMILES | First screening IR (inhibition rate) [%]
43 | Cc1nc2ccc(NC(=O)CNC(=O)c3ccccc3F)cc2s1 [Compound Z33270206] | 4
44 | COc1ccc(OC)c(-n2c(-c3ccc(C)cc3)nn(CN3CCN(c4ccc(O)cc4)CC3)c2=S)c1 [Compound Z44104256] | 10
45 | COc1ccc(OC)c(-n2c(-c3ccc(C)cc3)nn(CN3CCN(c4cccc(Cl)c4)CC3)c2=S)c1 [Compound Z44116384] | 31
46 | COc1ccc2cc(C3(C)NC(=O)N(CN4CCN(C/C=C/c5ccccc5)CC4)C3=O)ccc2c1 (stereo not drawn) [Compound Z44124119] | 1
47 | CC1CC(C)(C)CC2(C1)NC(=O)N(CN1CCN(c3ccc(C(F)(F)F)cn3)CC1)C2=O (stereo not drawn) [Compound Z44255985] | 18
48 | CCCCOc1ccc(/C=C2/C(=O)Nc3ccc(Cl)cc32)cc1 [Compound Z44304381] | 6
49 | CCCOc1cc(/C=C2/C(=O)Nc3ccc(Cl)cc32)ccc1OC [Compound Z44304730] | 9
50 | COc1cc(/C=C2/C(=O)Nc3ccc(Cl)cc32)cc(Cl)c1OC(F)F [Compound Z44304760] | 4
51 | CCOc1ccc(O)c(/C=C2\C(=O)Nc3ccc(Cl)cc32)c1 [Compound Z44304769] | 23
52 | Cc1nc(/C=C2/C(=O)Nc3ccc(Cl)cc32)cs1 [Compound Z44304809] | 13
53 | O=C1Nc2ccccc2/C1=C\c1ccc(O)cc1 [Compound Z44305789] | 25
54 | COc1cc(/C=C(\C#N)C(=O)NC2CCCCC2)ccc1OCC(=O)Nc1ccc(Br)cc1 [Compound Z44319326] | -16
55 | CC(Nc1ccc2c(c1)OCCO2)C(=O)Nc1ccc(F)c(F)c1F (stereo not drawn) [Compound Z44489053] | 4
56 | Cc1ccccc1Nc1nc(N)nc(CN(C)Cc2ccc(C(C)(C)C)cc2)n1 [Compound Z44561353] | 5
57 | Cn1c(O)c(N=NC(=O)c2ccc(COc3ccccc3-c3ccccc3)cc2)c2ccccc21 [Compound Z44853786] | 9
58 | COc1ccc(CSCc2nc(N)nc(Nc3ccccc3C)n2)cc1F [Compound Z45342622] | 6
59 | Cc1ccccc1Nc1nc(N)nc(CSCC(=O)N2CCCCC2)n1 [Compound Z45354084] | 18
60 | Cc1ccccc1Nc1nc(N)nc(CSc2ccc(C(F)(F)F)cn2)n1 [Compound Z45354574] | 12
61 | O=[N+]([O-])c1ccc2nc(CSc3ccc(C(F)(F)F)cn3)[nH]c2c1 [Compound Z45358726] | 7
62 | CCc1ccccc1Nc1nc(N)nc(CSCC(=O)c2cc(C)n(C)c2C)n1 [Compound Z45360560] | -2
63 | Cc1ccc(S(=O)(=O)N2CCN(S(=O)(=O)c3ccc(C)c(C)c3)CC2)cc1C [Compound Z45415135] | -5
